# Measured values as given in patent US9834525B2, “Inhibitors of paxillin function and related compositions and methods” (UNIVERSITY OF TENNESSEE RESEARCH FOUNDATION, priority 2015, dated 2017).
# Experiments:
# 92.1 cell line = assay: CFSE cellular proliferation, 92.1; format: cell-based, human; conditions: 96 hrs culture, 1 μM for the last 24 hrs
# Experimental: (§1) Harvested cells were resuspended at a concentration of 1.0×10^6 cells/mL in warm PBS/1% FBS. Cells were labeled with […] (Invitrogen) for 5 minutes at 37° C. then quenched on cold growth media (final volume 20 mL) for 10 minutes, twice. Cultured unlabeled cells were used as controls.
# (§2) To test the hypothesis that inhibition of paxillin will reduce cellular proliferation UM cell lines were labeled with carboxyfluorescein succunimidyl ester (CFSE), a cell tracking dye, and cultured for 96 hrs. A group of cells received treatment with compound (II-4) for the last 24 hours. Maximum CFSE fluorescence was controlled using labeled cells prior culture −0 hr. Negative control was established using unlabeled cells cultured in parallel. Histograms in FIG. 15D show 96 hrs cultured cells divided with a 1-log shift or reduction in CFSE intensity. […] Cell proliferation was not affected in the 92.1 cell line. […]
# (§3) FIG. 15: The paxillin inhibitor Compound (II-4) selectively affects cellular proliferation of primary UM cells that become metastatic. […] Unlabeled cells were used to control fluorescence. […] B. Quantitation of experiment +/−SD including primary UM that becomes metastatic (Mel 270), metastatic (OMM 2.1) and primary (92.1) UM cells. *P=0.0007 and **P=0.0005. […] Quantitation of VLA-4 protein levels +/−SD from n=3. […]
# AKT in OMM 2.5 cells = assay: Western blot of pAKT/AKT in HGF-stimulated metastatic UM cells; format: cell-based, human; conditions: HGF-stimulated OMM 2.5 cells, harvest after 4 hrs
# Experimental: REC, Mel 270, OMM 2.5 under Hepatocyte Growth Factor (HGF) or Vascular Endothelial Growth Factor (VEGF) stimulation conditions: Cell lysates were collected in RIPA lysis buffer (50 mM Tris-HCl, pH 7.4, 150 mM NaCl, 2 mM EDTA, 1% Nonidet P-40, 0.1% SDS) with protease 1× inhibitor cocktail (Roche; Indianapolis, Ind.). Lysates were kept on ice and centrifuged at 10,000×g×10 minutes and total protein was measured using the BCA assay (Pierce, Rockford, Ill.). Protein samples were mixed with 4×LDS loading buffer with 2.5% 2-mercaptoethanol (Sigma-Aldrich), heated to 70° C. for 10 minutes, and loaded on NuPAGE 4-12% Bis-Tris gel (Invitrogen, Carlsbad, Calif.). Immunoblotting was performed with nitrocellulose membranes (Bio-Rad, Hercules, Calif.) at 170-mA start and 110-mA end at 25 V for two hours in NuPAGE transfer buffer (Invitrogen) containing 20% methanol. […] Dual-channel infrared scan and quantitation of immunoblots were conducted using the ODYSSEY Sa infrared imaging system with Image Studio (Ver. 3.1.4) (LI-COR).
# FIG. 16: Paxillin inhibition reduced pAKT signaling in metastatic UM cells. A, Representative Western Blot of total and phosphorylated paxillin in metastatic UM cells, as in FIG. 4A-B. B, Quantitation from n=3. […] Lysates were measured by Western Blot. […]
# metastatic-UM cell = assay: CFSE cellular proliferation, metastatic UM; format: cell-based, human; conditions: metastatic-UM cells; 96 hrs culture, 1 μM for the last 24 hrs
# Experimental: as §1, §2, §3
# [1] = Microsomal stability, pooled rat liver microsomes; format: in vitro ADME; conditions: 1 μM, 37° C., 60 min
# Experimental: Microsomal stability of compound (II-4) (1 μM) was assessed in pooled liver microsomes (human, mouse, and rat) (FIG. 7). Briefly, compound (II-4) was incubated in duplicate with microsomes at 37° C. Reactions contained microsomal protein in 100 mM potassium phosphate, 2 mM NADPH, 3 mM MgCl2, pH 7.4. NADPH was omitted to detect NADPH-free degradation. At 60 minutes, the reaction was stopped by adding ice-cold methanol containing internal standard. Samples were centrifuged to remove precipitated protein, and the supernatants were analyzed by LC/MS/MS to quantitate the remaining parent.
# Microsomal stability of compound (II-4) (1 μM) was assessed in pooled liver microsomes (human, mouse, and rat) (FIG. 23). Briefly, compound (II-4) was incubated in duplicate with microsomes at 37° C. Reactions contained microsomal protein in 100 mM potassium phosphate, 2 mM NADPH, 3 mM MgCl2, pH 7.4. NADPH was omitted to detect NADPH-free degradation. At 60 min, the reaction was stopped by adding ice-cold methanol (+ internal standard). Samples were centrifuged to remove precipitated protein, and the supernatants were analyzed by LC/MS/MS to quantitate the remaining parent.
smiles,measurement,setting,value
COc1cc(C2OC(=O)Nc3c2ccc2ccccc32)cc(OC)c1OC (stereo not shown) [compound II-4],cell proliferation (CFSE),92.1 cell line,not affected
same,pAKT/AKT,AKT in OMM 2.5 cells,significant reduction
same,cell proliferation (CFSE),metastatic-UM cell,reduction was not observed
same,microsomal stability (metabolism by cytochrome P-450 enzymes),[1],rapidly metabolized
